Experimental data: patent US5457099A, “Carbostyril derivatives and antiallergic agent” (Sawai Pharmaceutical Co., Ltd., priority 1992, dated 1995)
Read-outs that look alike come from different tables or passages of the source.

Columns and labels:
[1] = test system: passive cutaneous anaphylaxis (PCA) reaction in rats; assay: Inhibition of PCA reaction in rats; type: in vivo, Wistar rats; settings: Rattus norvegicus, po; for inhibition in vivo at 10 mg/kg / inhibition in vivo at 3 mg/kg: read-out: Inhibition of PCA in rat
Experimental: (§1) Antiserum was prepared according to the method described in J. Immunol., 106, 1002 (1971). The titer (or highest effective dilution which gave a mean 48 hours PCA response of 5 mm in diameter in a rat) of the antiserum used was 1:200.
Wistar rats were passively sensitized by intracutaneous injection of 0.05 ml antiserum diluted 75 times with physiological saline at two sheared sites of dorsal skin. After 48 hours, 0.5ml/animal of 1% Evans blue-physiological saline containing 2mg ovalbumin was administered into caudal vein to elicit the reaction. After 30 minutes, rats were sacrificed by decapitative bleeding and the dorsal skin was flayed. Dye stuff exuded at the reaction site was extracted according to the method described in Microbiol. Immunol., 22, 89 (1978). Briefly, two circular pieces of sensitized areas and one circular piece of unsensitized area (as the control) were punched at 1.8 cm diameter. The disks were placed in test tubes and treated overnight with 1 ml 1N-KOH at 37° C. Then 9ml 0.6N-H3 PO4 /acetone (5/13) was added and the mixture was thoroughly stirred and centrifuged (3000 rpm, 10 minutes). The supernatant was assayed for absorption at 620 nm. The amount of dye stuff was calculated from the standard curve previously prepared with known amounts of Evance blue. The conditions of sensitization and the amount of antigen were based on Nippon Yakurigaku Zasshi (Japanese Journal of Pharmacology),80, 261 (1982).
Test drugs and Oxatomide as a positive control were administered orally before 1 hour of elicitation through a gastric tube at 1 ml/200g body weight. In the test, groups of 6 to 7 animals and groups of 8 to 9 animals were used for test drugs and control, respectively.

[2] = test system: experimental asthma in rats; assay: Inhibition of experimental asthma in rats; type: in vivo, Wistar rats; settings: Rattus norvegicus, po; for inhibition in vivo at 1 mg/kg: other dosage/kg: 1 mg
Experimental: as §1
Wistar rats were passively sensitized by injection into caudal vein of 2.0ml/animal antiserum. After 24 hours, anaphylactic airway contraction caused by administration of antigen was measured by a modified Konzett and Roessler method. Briefly, the animal was fixed at dorsal position under urethane (1.5 g/kg, i.p.) anesthetization and connected with a respirator (Harvard Model 683, respiratory volume: 3-5 ml/respiration; respiratory rate: 72/minute) via an incised tracheal cannula. […] Oxatomide was administered two hours before the test, which is the optimal conditions according to Nippon Yakurigaku Zasshi (Japanese Journal of Pharmacology), 80, 261 (1982), and the other test drugs were orally administered at a rate of 0.2 ml/100 g body weight one hour before the test using a gastric tube. At the end of measurement, the trachea was blocked with a Kocher clamp and the measured values were expressed in percent taking the value at blockage as the maximum contraction (100%).

[3] = 10 mg/kg, read-out: Inhibition of Experimental Asthma in rat
[4] = read-out: Inhibition of Experimental Asthma in rat

Compound | inhibition in vivo at 10 mg/kg ([1]; 10 mg/kg) | inhibition in vivo at 10 mg/kg [2, 3] | other results
O=C1Cc2ccccc2C(=C2CCN(Cc3cc(=O)[nH]c4ccccc34)CC2)c2ccsc21 [III-13, 4,9-dihydro-4-[1-[(1,2-dihydro-2-oxo-4-quinolyl)methyl]-4-piperidinylidene]-10H-benzo[4, 5]cyclohepta[1,2-b]thiophen-10-one] | 24.2% | 42.9% | –
O=c1ccc2ccccc2n1CCCN1CCC(c2c[nH]c3ccccc23)CC1 [VII-3, 1-[3-[4-(1H-indol-3-yl)-1-piperidinyl]propyl]-2(1H)-quinolinone] | 27.2% | 76.7% | –
O=c1cc(CCN2CCC(c3c[nH]c4ccccc34)CC2)c2cc([N+](=O)[O-])ccc2[nH]1 [III-19, 4-[2-[4-(1H-indol-3-yl)-1-piperidinyl]ethyl]-6-nitro-2(1H)-quinolinone] | 20.3% | 88.5% | –
Cc1ccc2c(ccc(=O)n2CCCN2CCC(c3c[nH]c4ccccc34)CC2)c1 [VII-2, 1-[3-[4-(1H-indol-3-yl)-1-piperidinyl]propyl]-6-methyl-2(1H)-quinolinone] | 41.9% | 24.3% | –
O=c1cc(CCCN2CCN(C(c3ccccc3)c3ccccc3)CC2)c2ccccc2[nH]1 [III-8, 4-[3-[4-(diphenylmethyl)-1-piperazinyl]propyl]-2(1H)-quinolinone] | 73.9% | 17.1% | –
Cc1ccc2[nH]c(=O)cc(CCN3CCC(c4c[nH]c5ccccc45)CC3)c2c1 [III-23, 4-[2-[4-(1H-indol-3-yl)-1-piperidinyl]ethyl]-6-methyl-2(1H)-quinolinone] | 62% | 95.5% | inhibition in vivo at 0.1 mg/kg ([2]; other dosage/kg: 0.1 mg): 48.5%; inhibition in vivo at 0.3 mg/kg ([2]; other dosage/kg: 0.3 mg): 84%; inhibition in vivo at 1 mg/kg [2]: 95%
O=c1cc(CCCCN2CCC(c3c[nH]c4ccccc34)CC2)c2ccccc2[nH]1 [III-4, 4-[4-[4-(1H-indol-3-yl)-1-piperidinyl]butyl]-2(1H)-quinolinone] | 12.8% | 28.7% | –
O=c1cc(CN2CCC(c3c[nH]c4ccccc34)CC2)c2ccccc2[nH]1 [III-1, 4-[[4-(1H-indol-3-yl)-l-piperidinyl]methyl]-2(1H)-quinolinone] | – | – | inhibition in vivo at 3 mg/kg [1]: 58.8%; inhibition in vivo at 10 mg/kg [1]: 73.1%; inhibition in vivo at 10 mg/kg [2, 4]: 14.6%; inhibition in vivo at 30 mg/kg [2, 4]: 14.3%
O=c1cc(CCN2CCN(C(c3ccccc3)c3ccccc3)CC2)c2ccccc2[nH]1 [III-7, 4-[2-[4-(diphenylmethyl)-1-piperazinyl]ethyl]-2(1H)-quinolinone] | 57.8% | 63.6% | –
Nc1ccc2[nH]c(=O)cc(CCN3CCC(c4c[nH]c5ccccc45)CC3)c2c1 [III-20, 6-amino-4-[2-[4-(1H-indol-3-yl)-1-piperidinyl]ethyl]-2(1H)-quinolinone] | 18.5% | 89.2% | –
O=c1cc(-c2ccc(Cl)cc2)c2ccccc2n1CCCN1CCC(c2c[nH]c3ccccc23)CC1 [VII-6, 4-(4-chlorophenyl)-l-[3-[4-(1H-indol-3-yl)-1-piperidinyl]propyl]-2(1H)-quinolinone] | 9.4% | 19.3% | –
Cc1cc(=O)n(CCCN2CCC(c3c[nH]c4ccccc34)CC2)c2ccccc12 [VII-4, 1-[3-[4-(1H-indol-3-yl)-1-piperidinyl]propyl]-4-methyl-2-(1H)-quinolinone] | 89.2% | 10.8% | –
O=c1cc(CCCCCN2CCC(c3c[nH]c4ccccc34)CC2)c2ccccc2[nH]1 [III-5, 4-[5-[4-(1H-indol-3-yl)-1-piperidinyl]pentyl]-2(1H)-quinolinone] | 66.5% | 8.87% | –
O=c1cc(CCCN2CCC(c3c[nH]c4ccccc34)CC2)c2ccccc2[nH]1 [III-3, 4-[3-[4-(1H-indol-3-yl)-1-piperidinyl]propyl]-2(1H)-quinolinone] | 69.1% | 85% | inhibition in vivo at 1 mg/kg ([1]; other dosage/kg: 1 mg): 21.3%; inhibition in vivo at 3 mg/kg ([1]; other dosage/kg: 3 mg): 25.8%; inhibition in vivo at 30 mg/kg ([1]; other dosage/kg: 30 mg): 96.1%; inhibition in vivo at 1 mg/kg [2]: 25.4%; inhibition in vivo at 3 mg/kg ([2]; other dosage/kg: 3 mg): 88.7%
